# Assay results from patent US20250092058A1 (priority 2018, published 2025).
# Like-named read-outs stand apart in the source and are kept apart here.
# Assays:
# HT-3 = experiment: MTT assay HT-3; type: cell-based, human; settings: Table 7; HT-3
# Experimental: (§1) MTT assays. […] Viable cells (2500 cells per well) were plated in each well in 96-well plates. After an overnight incubation, cells were treated with and without relevant drugs alone and in combination, respectively, at various concentrations and incubated for 72 hours. MTT, a colorimetric substrate, was added to a final concentration of 0.4 mg/ml to each well. Cells in 96-well plates were further incubated in a 5% CO2 incubator at 37° C. for 4 hours, and then the medium was aspirated. The MTT metabolic product formazan was solubilized by adding 200 ul of DMSO to each well. Absorbance in the relevant wells was measured at 570 nm using an Ultra Microplate Reader (Bio-Tek Instruments). Each experiment was performed at least in triplicate. IC50/EC50 values were calculated from a series of drug dose ranges for each analyzed compound, using GraphPad Prism 6 (GraphPad Software, Inc., La Jolla, CA).
# (§2) The inhibition of cell growth and viability in various cancer cell types were tested using MTT assay for references.
# Y79 = experiment: MTT assay Y79; type: cell-based; settings: Table 7
# Experimental: (§3) MTT assays. […] Each experiment was performed at least in triplicate.
# Wer 127 = experiment: MTT assay Wer 127; type: cell-based; settings: Table 7
# Experimental: as §3
# [1] = tested on: HT-3 retinoblastoma xenograft tumors; settings: for overall antitumor activity versus toxicity ranking / antitumor activity and toxicity profile: oral; for overall antitumor activity versus toxicity ranking: multiple doses, weekly×4; for antitumor activity and toxicity profile: one time, 3-4 doses
# Experimental: Human HT-3 retinoblastoma xenograft tumors were initially established by subcutaneously injection of 2-5×10^6 HT-3 cells in a volume of 100-200 μL medium. Mouse models of HT-3 xenografts were set up by subcutaneously inoculating 30-40 mg tumor tissue on the flank of SCID mice. Treatment with individual compounds was initiated 7-14 days after the transplanted tumors reached 100-200 mm^3 (designated day 0). […] The individual compounds were formulated in an organic solvent-free with HPPCD as drug carriers in 2% HPMC (hydroxypropyl methylcellulose) and 1% PG (propylene glycol) in saline (a thick aqueous suspension) for oral administration. The vehicle is the same thick aqueous suspension without drug. A. FL7s-3-treated xenograft tumor curve profile (left panel) and body weight profile (right panel) over the experimental period. B. FL7s-4-treated xenograft tumor curve profile (left panel) and body weight profile (right panel) over the experimental period. C. FL7s-7-treated xenograft tumor curve profile (left panel) and body weight profile (right panel) over the experimental period.
# Human xenograft tumors used. In this invention disclose, human SW620 (colorectal), HT29 (colorectal) and HT-3 (retinoblastoma) cancer cell line-established xenograft tumors were used. Human tumor cell line-derived xenograft tumors are initially established by subcutaneously injecting 2-5×10^6 cultured cancer cells in a volume of 100-150 p L medium into the flank area of severe combined immunodeficiency (SCID) mice. The derived tumors are then passed a couple of generations in mice by transplanting 30-50 mg non-necrotic tumor mass via a trocar for experiments or maintenance. […] PDX tumors were originally established on severe Combined Immunodeficiency (SCID) mice from pancreatic and colorectal cancer patient tumor tissues obtained from metastatic sites of the disease in the clinic.
# To these three novel compounds, we performed in vivo animal model studies to evaluate their antitumor activity and toxicity using the HT-3 retinoblastoma xenograft tumor models. In this experiment, we still took advantage of the newly developed formulation for oral administration of compounds.
# A549 = experiment: MTT assay A549; type: cell-based, human; settings: Table 9
# Experimental: as §3
# UOK151 = tested on: UOK151
# Experimental: as §1, §2
# UOK262 = tested on: UOK262
# Experimental: as §1, §2
# A2008 = experiment: MTT assay A2008; type: cell-based; settings: Table 9; A2008
# Experimental: as §1, §2
# PDX14244 and PDX27454 = experiment: Pancreatic PDX14244 (left flank) and colorectal PDX27454 (right flank) in the same SCID mice; type: in vivo
# Experimental: Human xenograft tumors used.
# The vehicle is the same aqueous suspension without FL7N-1. Experimental SCID mice were subcutaneously implanted with 30-40 mg individual PDX tumors (isolated from maintenance mice) at the flank area (left side for PDX14244, and right side for PDX27454) of SCID mice. […] The animal model of PDX tumors was orally treated weekly for 3 times as shown with black arrows. […] Thus, FL7N-1 may be a priority candidate to be developed for treatment of children rare disease retinoblastoma.
# (§4) The vehicle is the same think aqueous suspension without drug. Experimental SCID mice were subcutaneously implanted with 30-40 mg individual PDX tumors (isolated from maintenance mice) at the flank area (left side for PDX14244, and right side for PDX27454) of SCID mice. […] The animal model of PDX tumors was orally treated weekly for 3 times as shown with black arrows.
# as §4, with “for 4” for “for 3”, “times (one cycle/course,” for “times”, “black arrows).” for “black arrows.”
# as §4, with “times in two doses due to drug limitation then (as” for “times as”, “black arrows).” for “black arrows.”
# PDX10978 = experiment: Pancreatic cancer PDX10978 in SCID mice; type: in vivo; settings: FL118 0.75 mg/kg or gemcitabine 60 mg/kg ip qw×4
# Experimental: Human pancreatic cancer patient-derived xenograft (PDX) tumor mouse model and treatment. Experiments followed the IACUC-approved mouse protocol. Briefly, human PDAC PDX tumors maintained on SCID mice were isolated, and a piece of non-necrotic tumor tissues (30-40 mg) were subcutaneously transplanted into the flank area of female SCID mice. […] In this study, we used the timesaving intraperitoneal (ip) route for drug administration. […] The formulation process was described in detail in our previous patent (PCT/US2011/058558). […] Tumor length (L) and width (W) were measured using digital vernier calipers 1-3 times per week until the end of experimental studies. The tumor volume (v) was calculated using the formula: v=0.5 (L×W^2). Then the tumor size was divided by the day 0 tumor size as percentage tumor size versus day 0. The mean tumor volume ± standard deviation (SD) at each time point was derived from 5 mice in each group. The tumor curves were made using Sigma Plot software.
# It has been recently documented that pancreatic cancer PDXs retain active paracrine/Hedgehog signaling, and desmoplasia is active in PDX tumor mouse models.
# HCT116 = experiment: MTT assay HCT116; type: cell-based, human; settings: Table 8
# Experimental: as §3
# H1376 = tested on: H1376
# Experimental: as §1, §2
# UMUC-3 = tested on: UMUC-3
# Experimental: as §1, §2
# T24 = experiment: MTT assay T24; type: cell-based; settings: Table 5 lower part; T24 bladder cancer
# Experimental: as §1, §2
# RT4 = experiment: MTT assay RT4; type: cell-based; settings: Table 5 lower part; RT4 bladder cancer
# Experimental: as §1, §2
# [2] = oral one time, 5, 10 and 15 mg/kg
structure (smiles),measurement,setting,value
CC[C@@]1(O)C(=O)OCc2c1cc1n(c2=O)Cc2c-1nc1cc3c(cc1c2CCc1cccc(F)c1)OCO3 [FL7s-7],IC50/EC50,HT-3,2.22 nM
same,IC50/EC50,Y79,0.29 nM
same,IC50/EC50,Wer 127,4.76 nM
same,overall antitumor activity versus toxicity ranking,[1],top two candidates
CC[C@@]1(O)C(=O)OCc2c1cc1n(c2=O)Cc2c-1nc1cc3c(cc1c2-c1cc(C(F)(F)F)cc(C(F)(F)F)c1)OCO3 [W-b10/Hx7],IC50/EC50,A549,5.29 nM
same,IC50/EC50,"UOK151; Table 10, UOK151",>500 nM
same,IC50/EC50,"UOK262; Table 10, UOK262",33.4 nM
same,IC50/EC50,A2008,7.31 nM
same,"antitumor activity and toxicity, Hx-series",PDX14244 and PDX27454; oral weekly for 3 times,much higher antitumor activity with favorable toxicity
"Nc1ccn([C@@H]2O[C@H](CO)[C@@H](O)C2(F)F)c(=O)n1 [gemcitabine, reference compound]","antitumor efficacy, single agent",PDX10978,only delayed tumor growth
CC[C@@]1(O)C(=O)OCc2c1cc1n(c2=O)Cc2c-1nc1cc3c(cc1c2/C=C/c1ccc(F)cc1)OCO3 [FL7s-3],IC50/EC50,HT-3,1.68 nM
same,IC50/EC50,Y79,0.61 nM
same,IC50/EC50,Wer 127,40.69 nM
same,overall antitumor activity versus toxicity ranking,[1],top two candidates
"CC[C@@]1(O)C(=O)OCc2c1cc1n(c2=O)Cc2c-1nc1cc3c(cc1c2CCc1ccccc1Cl)OCO3 [FL7-15, 20 (S)-7-(2-chloro-phenethyl)-10,11-methylenedioxy-camptothecin]",IC50/EC50,HT-3,45.81 nM
same,IC50/EC50,Y79,12.59 nM
same,IC50/EC50,Wer 127,>500 nM
same,overall antitumor activity versus toxicity ranking,[1],not as good as FL7-5 and FL7-14
"CC[C@@]1(O)C(=O)OCc2c1cc1n(c2=O)Cc2c-1nc1cc3c(cc1c2CCN1CCSCC1)OCO3 [Compound 7N3, 20 (S)-7-thiomorpholinylethyl-10,11-methylenedioxy-camptothecin]",IC50/EC50,HCT116,171.9 nM
same,antitumor activity and toxicity profile,[1],great antitumor activity and favorable toxicity profiles
"CC[C@@]1(O)C(=O)OCc2c1cc1n(c2=O)Cc2c-1nc1cc3c(cc1c2CCN1CCOCC1)OCO3 [Compound 7N1, 20 (S)-7-morpholinylethyl-10,11-methylenedioxy-camptothecin]",IC50/EC50,HCT116,11.6 nM
same,IC50/EC50,"H1376; Table 8, H1376",>500 nM
same,IC50/EC50,"UMUC-3; Table 8, UMUC-3",2.05 nM
same,IC50/EC50,"UOK151; Table 8, UOK151",42.8 nM
same,IC50/EC50,"UOK262; Table 8, UOK262",38 nM
same,antitumor activity,[1]; [2],exceptional antitumor activity in all three doses used
same,toxicity (mouse body weight loss),[1]; [2],without showing toxicity
same,antitumor activity and toxicity profile,[1],great antitumor activity and favorable toxicity profiles
same,antitumor activity,PDX14244 and PDX27454; oral weekly for 3 times,very good
CC[C@@]1(O)C(=O)OCc2c1cc1n(c2=O)Cc2c-1nc1cc3c(cc1c2-c1ccco1)OCO3 [W-b7],IC50/EC50,A549,0.39 nM
same,IC50/EC50,A2008,0.19 nM
CC[C@@]1(O)C(=O)OCc2c1cc1n(c2=O)Cc2c-1nc1cc3c(cc1c2-c1ccsc1)OCO3 [W-b4],IC50/EC50,A549,1.99 nM
same,IC50/EC50,A2008,31.9 nM
CC[C@@]1(O)C(=O)OCc2c1cc1n(c2=O)Cc2c-1nc1cc3c(cc1c2CCN1CCCCC1C)OCO3 (stereo partly shown) [Compound 7N2],IC50/EC50,HCT116,25.62 nM
same,antitumor activity and toxicity profile,[1],great antitumor activity and favorable toxicity profiles
CC[C@@]1(O)C(=O)OCc2c1cc1n(c2=O)Cc2c-1nc1cc3c(cc1c2-c1ccc(CO)cc1)OCO3 [W-b9],IC50/EC50,A549,1.28 nM
same,IC50/EC50,A2008,3.49 nM
CC[C@@]1(O)C(=O)OCc2c1cc1n(c2=O)Cc2c-1nc1cc3c(cc1c2-c1cnn(C)c1)OCO3 [W-b5],IC50/EC50,A549,2.29 nM
same,IC50/EC50,A2008,17.5 nM
"CC[C@@]1(O)C(=O)OCc2c1cc1n(c2=O)Cc2c-1nc1cc3c(cc1c2CCc1ccc(Br)cc1)OCO3 [FL7-17, 20 (S)-7-(4-bromo-phenethyl)-10,11-methylenedioxy-camptothecin]",IC50/EC50,HT-3,6.48 nM
same,IC50/EC50,Y79,1.57 nM
same,IC50/EC50,Wer 127,2.48 nM
same,overall antitumor activity versus toxicity ranking,[1],not as good as FL7-5 and FL7-14
"CC[C@@]1(O)C(=O)OCc2c1cc1n(c2=O)Cc2c-1nc1cc3c(cc1c2-c1ccncc1)OCO3 [W-b1, 20 (S)-7-(pyridyl-4-)-FL118 (10,11-methylenedioxy-camptothecin)]",IC50/EC50,A549,73.4 nM
same,IC50/EC50,A2008,24.4 nM
CC[C@@]1(O)C(=O)OCc2c1cc1n(c2=O)Cc2c-1nc1cc3c(cc1c2-c1ccc(F)c(F)c1)OCO3 [HX6],IC50/EC50,"UOK151; Table 10, UOK151",4.6 nM
same,IC50/EC50,"UOK262; Table 10, UOK262",4.9 nM
same,"antitumor activity and toxicity, Hx-series",PDX14244 and PDX27454; oral weekly for 3 times,much higher antitumor activity with favorable toxicity
CC[C@@]1(O)C(=O)OCc2c1cc1n(c2=O)Cc2c-1nc1cc3c(cc1c2-c1ccc(OC)cc1)OCO3 [7Q 9],IC50/EC50,T24,0.32 nM
same,IC50/EC50,RT4,3.37 nM
same,IC50/EC50,"H1376; Table 5 lower part, H1376 bladder cancer",>500 nM
same,IC50/EC50,"UMUC-3; Table 5 lower part, UMUC-3 bladder cancer",0.35 nM
same,IC50/EC50,"UOK151; Table 5 lower part, UOK151 kidney cancer",50 nM
same,IC50/EC50,"UOK262; Table 5 lower part, UOK262 kidney cancer",32 nM
same,"antitumor activity, 7Q-series (1)",PDX14244 and PDX27454; oral weekly for 4 times,much higher antitumor activity than the other compounds in this 7Q-series (1)
